The data set can be described thus: Evaluation of hydrosolubility: presence or absence of precipitate in buffered solutions. The settings on record: for hydrosolubility (presence or absence of precipitate): diluted from DMSO stock solution.

Procedure: The hydrosolubility of the compounds was evaluated as a function of the presence or absence of precipitate in buffered solutions of the compounds in question at different concentrations.
These stock solutions were then diluted in a commercial PBS buffer in order to obtain a range of final concentrations between 1 mM and 50 μM. A compound was declared to be insoluble if a precipitate appeared and persisted after dilution.

Take `Cc1cc(=O)oc2cc(NC(=O)[C@@H](N)CC(C)C)ccc12` [AMC-Leu, reference compound]: the “appearance of stock solution in DMSO” value (100 mM in DMSO) was “cloudy solution”.

Regarding `Cc1cc(=O)oc2cc(OC(=O)N3CCNCC3CNC(=O)Cc3ccccc3)ccc12` (centres unmarked) [Compound 12, 4-methyl-2-oxo-2H-chromen-7-yl 2-((2-phenylacetamido)methyl)piperazine-1-carboxylate], the “hydrosolubility (presence or absence of precipitate)” value (“hydrosolubility” below) is recorded as “soluble” (50 μM in PBS buffer); “soluble” (100 μM in PBS buffer); “soluble” (250 μM in PBS buffer); “soluble” (500 μM in PBS buffer); “soluble” (1 mM in PBS buffer).

`Cc1cc(=O)oc2cc(OC(=O)N3CCCCC3CNC(=O)Cc3ccccc3)ccc12` (centres unmarked) [Compound 15, 4-methyl-2-oxo-2H-chromen-7-yl 2-((2-phenylacetamido)methyl)piperidine-1-carboxylate, reference compound]: the “hydrosolubility” value runs as follows: (50 μM in PBS buffer) “insoluble”; (100 μM in PBS buffer) “insoluble”; (250 μM in PBS buffer) “insoluble”; (500 μM in PBS buffer) “insoluble”; (1 mM in PBS buffer) “insoluble”.

Regarding `CCCCCCCC(=O)OCC1CNCCN1C(=O)Oc1ccc2c(C)cc(=O)oc2c1` (centres unmarked) [Compound 21, 4-methyl-2-oxo-2H-chromen-7-yl 2-((octanoyloxy)methyl)piperazine-1-carboxylate], the “hydrosolubility” value (50 μM in PBS buffer) was “soluble”; the “hydrosolubility” value (100 μM in PBS buffer) is “soluble”; the “hydrosolubility” value (250 μM in PBS buffer) is listed as “soluble”; the “hydrosolubility” value (500 μM in PBS buffer) is “insoluble”; the “hydrosolubility” value (1 mM in PBS buffer) is “insoluble”.

For `CCCCCCCC(=O)OCC1CN(CCCCS(=O)(=O)O)CCN1C(=O)Oc1ccc2c(C)cc(=O)oc2c1` (centres unmarked) [Compound 22, 4-(4-(((4-methyl-2-oxo-2H-chromen-7-yl)oxy)carbonyl)-3-((octanoyloxy)methyl)piperazin-1-yl)butane-1-sulfonic Acid], the “hydrosolubility” value is reported as “soluble” (50 μM in PBS buffer); “soluble” (100 μM in PBS buffer); “soluble” (250 μM in PBS buffer); “soluble” (500 μM in PBS buffer); “soluble” (1 mM in PBS buffer).

On to `CCCCCCCC(=O)OCC1CCCCN1C(=O)Oc1ccc2c(C)cc(=O)oc2c1` (centres unmarked) [Compound 27, 4-methyl-2-oxo-2H-chromen-7-yl 2-((octanoyloxy)methyl)piperidine-1-carboxylate, reference compound], for which the “hydrosolubility” value reads like this: (50 μM in PBS buffer) “soluble”; (100 μM in PBS buffer) “soluble”; (250 μM in PBS buffer) “insoluble”; (500 μM in PBS buffer) “insoluble”; (1 mM in PBS buffer) “insoluble”.

`COCCOCCOCCn1cc(CCC(=O)N2CCN(C(=O)Oc3ccc4c(C)cc(=O)oc4c3)C(CNC(=O)Cc3ccccc3)C2)nn1` (centres unmarked) [Compound 31, 4-methyl-2-oxo-2H-chromen-7-yl 4-(3-(1-(2-(2-(2-methoxyethoxy)ethoxy)ethyl)-1H-1,2,3-triazol-4-yl)propanoyl)-2-((2-phenylacetamido)methyl)piperazine-1-carboxylate]: the “hydrosolubility” value is, setting by setting: (50 μM in PBS buffer) “soluble”; (100 μM in PBS buffer) “soluble”; (250 μM in PBS buffer) “soluble”; (500 μM in PBS buffer) “soluble”; (1 mM in PBS buffer) “soluble”.

With `COCCOCCOCCn1cc(CCC(=O)N2CCN(C(=O)Oc3ccc([N+](=O)[O-])cc3)C(CNC(=O)Cc3ccccc3)C2)nn1` (centres unmarked) [Compound 36, 4-nitrophenyl 4-(3-(1-(2-(2-(2-methoxyethoxy)ethoxy)ethyl)-1H-1,2,3-triazol-4-yl)propanoyl)-2-((2-phenylacetamido)methyl)piperazine-1-carboxylate], the “hydrosolubility” value is, setting by setting: (50 μM in PBS buffer) “soluble”; (100 μM in PBS buffer) “soluble”; (250 μM in PBS buffer) “soluble”; (500 μM in PBS buffer) “soluble”; (1 mM in PBS buffer) “soluble”.

`COCCOCCOCCn1cc(CCC(=O)N2CCN(C(=O)Oc3ccc(Cl)cc3-c3nc4ccc(Cl)cc4c(=O)[nH]3)C(CNC(=O)Cc3ccccc3)C2)nn1` (centres unmarked) [Compound 39, 4-chloro-2-(6-chloro-4-oxo-3,4-dihydroquinazolin-2-yl)phenyl 4-(3-(1-(2-(2-(2-methoxyethoxy)ethoxy)ethyl)-1H-1,2,3-triazol-4-yl)propanoyl)-2-((2-phenylacetamido)methyl)piperazine-1-carboxylate]: the “hydrosolubility” value reads like this: (50 μM in PBS buffer) “soluble”; (100 μM in PBS buffer) “soluble”; (250 μM in PBS buffer) “soluble”; (500 μM in PBS buffer) “insoluble”; (1 mM in PBS buffer) “insoluble”.

The values above are taken from patent US10179929B2, “Water-soluble activatable molecular probes, intermediates for the synthesis thereof and associated detection methods” (ECOLE NORMALE SUPERIEURE DE LYON, priority 2014, dated 2019).
